Structures are written as SMILES.

Usually melting point stands for the temperature, or range, at which the solid turns liquid. On to `COc1cc(C[C@@H]2CN(CCCc3cccnc3)CCN2C(=O)c2cc(C(F)(F)F)cc(C(F)(F)F)c2)ccc1F.Cl.Cl`, for which the melting point lay within 125 to 130 °C.
Under `COc1cc(C(=O)N2CCN(Cc3cnn(C)c3)C[C@H]2Cc2ccc(Cl)cc2)cc(C(F)(F)F)c1.Cl` stands 70 to 100 °C; under `Cl.Cn1cc(CN2CCN(C(=O)c3cc(C(F)(F)F)cc(C(F)(F)F)c3)[C@H](Cc3ccc(F)cc3)C2)cn1`, 143.3 to 146.4 °C.
For `COc1cc(C(=O)N2CCN(Cc3cnn(C)c3)C[C@H]2Cc2ccc3ccccc3c2)cc(C(F)(F)F)c1.Cl` the value was 226 to 228 °C.
Turning to `Cl.Cl.O=C(c1cc(C(F)(F)F)cc(C(F)(F)F)c1)N1CCN(Cc2cccnc2)C[C@H]1Cc1ccc(Cl)c(O)c1`, the melting point was 187 to 192 °C.
Under `COC[C@@H]1CN(CCN2CCN(C(=O)c3cc(C(F)(F)F)cc(S(=O)(=O)N4CCCC4)c3)[C@H](Cc3ccc(C)c(O)c3)C2)CCO1.Cl.Cl` stands 125 to 177 °C.
Under `COC[C@@H]1CN(CCN2CCN(C(=O)c3cc(C(F)(F)F)cc(S(=O)(=O)N4CCOCC4)c3)[C@H](Cc3ccc(C)c(O)c3)C2)CCO1.Cl.Cl` stands 130 to 175 °C; under `COC[C@@H]1CN(CCN2CCN(C(=O)c3cc([N+](=O)[O-])cc(C(F)(F)F)c3)[C@H](Cc3ccc(C)c(O)c3)C2)CCO1.Cl.Cl`, 181 to 185 °C; under `COC[C@@H]1CN(CCN2CCN(C(=O)c3cc(N(C)C)cc(C(F)(F)F)c3)[C@H](Cc3ccc(C)c(O)c3)C2)CCO1.Cl.Cl`, 182 to 186 °C.
The compound `CSc1cc(C(=O)N2CCN(CCN3C[C@@H](C)O[C@@H](C)C3)C[C@H]2Cc2ccc(Cl)cc2)cc(C(F)(F)F)c1.Cl.Cl` displayed a melting point of 138.4 to 142.5 °C.
For `C[C@@H]1CN(CCN2CCN(C(=O)c3cc(C(F)(F)F)cc(S(=O)(=O)N(C)C)c3)[C@H](Cc3ccc(Cl)cc3)C2)C[C@H](C)O1.Cl.Cl` the value was 209.6 to 213.7 °C.
`Cc1cc(C(=O)N2CCN(CCN3C[C@@H](C)O[C@@H](C)C3)C[C@H]2Cc2ccc(Cl)cc2)cc(C(F)(F)F)c1.Cl.Cl` returned a melting point of 82.3 to 88.2 °C.
Under `Cc1cc(C(=O)N2CCN(CCN3CCc4ncccc4C3)C[C@H]2Cc2ccc(Cl)cc2)cc(C(F)(F)F)c1.Cl.Cl.Cl` stands 102.5 to 110.4 °C; under `Cl.Cl.O=C(c1cc(C(F)(F)F)cc(C(F)(F)F)c1)N1CCN(CCCc2cccnc2)C[C@H]1Cc1ccc(F)cc1`, 110.2 to 117.5 °C; under `COc1cc(C(=O)N2CCN(CCCc3cccnc3)C[C@H]2Cc2ccc(F)cc2)cc(C(F)(F)F)c1.Cl.Cl`, 111.5 to 118.3 °C.
For `COC[C@@H]1CN(CC#CCN2CCN(C(=O)c3cc(C(F)(F)F)cc(C(F)(F)F)c3)[C@H](Cc3ccc(C)c(O)c3)C2)CCO1.Cl.Cl` the value was 110 to 130 °C.
For `COC[C@@H]1CN(CCN2CCN(C(=O)c3cc(C(F)(F)F)cc(S(N)(=O)=O)c3)[C@H](Cc3ccc(C)c(O)c3)C2)CCO1.Cl.Cl` the value was 166 to 206 °C; for `COC[C@@H]1CN(CCN2CCN(C(=O)c3cc(C(F)(F)F)cc(C(F)(F)F)c3)[C@H](Cc3ccc(C(F)(F)F)cc3)C2)[C@@H](C)CO1.Cl.Cl`, 142 to 182 °C; for `COC[C@@H]1C[C@@H](OC)CN1CCN1CCN(C(=O)c2cc(C(F)(F)F)cc(C(F)(F)F)c2)[C@H](Cc2ccc(Cl)c(O)c2)C1.Cl.Cl`, 95 to 105 °C.
The compound `CO[C@H]1CN(CCN2CCN(C(=O)c3cc(C(F)(F)F)cc(C(F)(F)F)c3)[C@H](Cc3ccc(C(F)(F)F)cc3)C2)C[C@@H]1OC.Cl.Cl` registered a melting point of 203 to 208 °C.
Under `Cl.Cl.O=C(c1cc(C(F)(F)F)cc(C(F)(F)F)c1)N1CCN(CCN2C[C@H](O)[C@@H](O)C2)C[C@H]1Cc1ccc(C(F)(F)F)cc1` stands 154 to 159 °C.
For `COC[C@@H]1C[C@H](COC)CN(CCN2CCN(C(=O)c3cc(C(F)(F)F)cc(C(F)(F)F)c3)[C@H](Cc3ccc(F)c(OC)c3)C2)C1.Cl.Cl` the value was 150 to 156 °C.
Under `COC[C@@H]1CN(CCN2CCN(C(=O)c3cc(-c4ccncc4)cc(C(F)(F)F)c3)[C@H](Cc3ccc(C(F)(F)F)cc3)C2)CCO1.Cl.Cl.Cl` stands 81 to 91 °C; under `CSc1cc(C(=O)N2CCN(CCN3C[C@@H](C)O[C@@H](C)C3)C[C@H]2Cc2ccc(C(F)(F)F)cc2)cc(C(F)(F)F)c1.Cl.Cl`, 154 to 156 °C.
Compound `C[C@@H]1CN(CCN2CCN(C(=O)c3cc(C(F)(F)F)cc(S(C)(=O)=O)c3)[C@H](Cc3ccc(C(F)(F)F)cc3)C2)C[C@H](C)O1.Cl.Cl` showed a melting point of 188 to 195 °C.
For `COC[C@@H]1CN(CCN2CCN(C(=O)c3cc(SC)cc(C(F)(F)F)c3)[C@H](Cc3ccc(F)c(OC)c3)C2)CCO1.Cl.Cl` the value was 132 to 135 °C; for `COC[C@@H]1CN(CCN2CCN(C(=O)c3cc(C(F)(F)F)cc(S(=O)(=O)C4CCCC4)c3)[C@H](Cc3ccc(Cl)cc3)C2)CCO1.Cl.Cl`, greater than 230 °C.
`Cl.Cl.O=C(c1cc(C(F)(F)F)cc(C(F)(F)F)c1)N1CCN(Cc2c[nH]c3cccnc23)C[C@H]1Cc1ccc(Cl)c(O)c1` yielded a melting point of 208 to 211 °C.
For `C[C@@H]1CN(CCN2CCN(C(=O)c3cc(C(F)(F)F)cc(C(F)(F)F)c3)[C@H](Cc3ccc(F)c(O)c3)C2)C[C@H](C)O1.Cl.Cl` the value was 170 to 195 °C; for `Cl.Cl.O=C(c1cc(C(F)(F)F)cc(C(F)(F)F)c1)N1CCN(Cc2cccnc2)C[C@H]1Cc1ccc(F)c(F)c1`, 203 to 208 °C; for `COC[C@@H]1CN(CCN2CCN(C(=O)c3cc(C(F)(F)F)cc(C(F)(F)F)c3)[C@H](Cc3ccc(C(F)(F)F)cc3)C2)CCO1.Cl.Cl`, 146 to 159 °C.
For `COC[C@@H]1CN(CCN2CCN(C(=O)c3cc(C(F)(F)F)cc(C(F)(F)F)c3)[C@H](Cc3ccc(F)c(C)c3)C2)CCO1.Cl.Cl` the value was 151 to 156 °C; for `CC1(C)COCCN1CC#CCN1CCN(C(=O)c2cc(C(F)(F)F)cc(C(F)(F)F)c2)[C@H](Cc2ccc(C(F)(F)F)cc2)C1.Cl.Cl`, 110 to 130 °C.
In turn, `CC1(C)COCCN1CC#CCN1CCN(C(=O)c2cc(C(F)(F)F)cc(C(F)(F)F)c2)[C@H](Cc2ccc(F)cc2)C1.Cl.Cl` came in with a melting point of 76.5 to 130.6 °C.
For `COc1cc(C(=O)N2CCN(CCN3C[C@@H](C)O[C@@H](C)C3)C[C@H]2Cc2ccc(F)cc2)cc(C(F)(F)F)c1.Cl.Cl` the value was 70.3 to 85.2 °C.
For `C[C@@H]1CN(CCN2CCN(C(=O)c3cc(C(F)(F)F)cc(C(F)(F)F)c3)[C@H](Cc3ccc4ccccc4c3)C2)C[C@H](C)O1.Cl.Cl` the value was 168 to 195 °C.
For `COc1cc(C(=O)N2CCN(CCN3CCC(F)(F)CC3)C[C@H]2Cc2ccc3ccccc3c2)cc(C(F)(F)F)c1.Cl.Cl` the value was 243 to 260 °C; for `COc1cc(C(=O)N2CCN(CC#CCN3CCOCC3(C)C)C[C@H]2Cc2c[nH]c3ccccc23)cc(C(F)(F)F)c1.Cl.Cl`, 190 to 200 °C; for `COc1cc(C(=O)N2CCN(Cc3cnn(C)c3)C[C@H]2Cc2c[nH]c3ccccc23)cc(C(F)(F)F)c1.Cl`, 210 to 220 °C.
On to `COc1cc(C(=O)N2CCN(CCCc3cccnc3)C[C@H]2Cc2c[nH]c3ccccc23)cc(C(F)(F)F)c1.Cl.Cl`, for which the melting point lay in the range of 135 to 145 °C.
